Source: patent publication US6608086B2, “Dihydropyridines and new uses thereof” (Synaptic Pharmaceutical Corporation, priority 1993, dated 2003)
Counter-ions that a name gives are not always drawn. Like-named read-outs stand apart in the source and are kept apart here.

Key:
[1] = molecular target: T1, α2B receptor (Homo sapiens, UniProt P18089); test: Competition binding, [3H]rauwolscine, human α2B receptor
T1 construct: host or cells: LM(tk-) cells, line L-NGC-α2B
T1 sequence (P18089 1-450): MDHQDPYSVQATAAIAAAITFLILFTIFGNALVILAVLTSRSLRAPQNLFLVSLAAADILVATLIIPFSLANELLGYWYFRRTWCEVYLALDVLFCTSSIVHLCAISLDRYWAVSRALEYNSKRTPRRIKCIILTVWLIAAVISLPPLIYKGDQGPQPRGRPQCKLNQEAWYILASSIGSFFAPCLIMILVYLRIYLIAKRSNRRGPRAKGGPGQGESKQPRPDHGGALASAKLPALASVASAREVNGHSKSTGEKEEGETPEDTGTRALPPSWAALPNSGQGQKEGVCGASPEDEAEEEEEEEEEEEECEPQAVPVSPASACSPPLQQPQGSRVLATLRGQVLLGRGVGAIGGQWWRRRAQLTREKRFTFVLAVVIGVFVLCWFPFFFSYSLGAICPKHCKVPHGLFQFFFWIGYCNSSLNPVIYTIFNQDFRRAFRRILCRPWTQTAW
Method in brief: (§1)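 Equilibrium displacement of [3H]rauwolscine (0.5 nM) measured on membranes from stably transfected LM(tk−) lines, one per α2 subtype, in glycylglycine buffer at pH 7.6. Nonspecific binding set by 10 μM phentolamine; separation by filtration.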

[2] = molecular target: T2, α1C Human Adrenergic Receptor (Homo sapiens, UniProt P35348); test: Radioligand binding, [3H]prazosin, cloned human α1C adrenergic receptor
T2 construct: The entire coding region of α1C (1401 bp); expressed in transfected cells
T2 sequence (P35348 1-466): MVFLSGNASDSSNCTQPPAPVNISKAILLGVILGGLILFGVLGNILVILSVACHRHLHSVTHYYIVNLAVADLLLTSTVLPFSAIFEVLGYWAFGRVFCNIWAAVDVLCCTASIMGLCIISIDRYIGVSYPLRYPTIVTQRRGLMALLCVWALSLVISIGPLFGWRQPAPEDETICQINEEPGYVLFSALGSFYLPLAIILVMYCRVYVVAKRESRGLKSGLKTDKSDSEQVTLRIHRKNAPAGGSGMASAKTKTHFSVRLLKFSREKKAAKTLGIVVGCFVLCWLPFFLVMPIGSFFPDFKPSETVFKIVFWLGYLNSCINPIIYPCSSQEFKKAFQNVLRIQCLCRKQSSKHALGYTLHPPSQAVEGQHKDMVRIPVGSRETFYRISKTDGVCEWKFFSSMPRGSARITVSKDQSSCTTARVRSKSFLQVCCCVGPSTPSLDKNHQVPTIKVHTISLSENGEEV
Method in brief: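 Read-out is filter-retained [3H]prazosin (0.5 nM) bound to membranes of LM(tk−) cells stably carrying the human α1C receptor. Incubation ran 20 min at 37° C. at pH 7.5, with 10 μM phentolamine marking nonspecific binding.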

[3] = molecular target: T3, α2A receptor (Homo sapiens, UniProt P08913); test: Competition binding, [3H]rauwolscine, human α2A receptor
T3 construct: host or cells: LM(tk-) cells, line L-α2A
T3 sequence (P08913 1-465): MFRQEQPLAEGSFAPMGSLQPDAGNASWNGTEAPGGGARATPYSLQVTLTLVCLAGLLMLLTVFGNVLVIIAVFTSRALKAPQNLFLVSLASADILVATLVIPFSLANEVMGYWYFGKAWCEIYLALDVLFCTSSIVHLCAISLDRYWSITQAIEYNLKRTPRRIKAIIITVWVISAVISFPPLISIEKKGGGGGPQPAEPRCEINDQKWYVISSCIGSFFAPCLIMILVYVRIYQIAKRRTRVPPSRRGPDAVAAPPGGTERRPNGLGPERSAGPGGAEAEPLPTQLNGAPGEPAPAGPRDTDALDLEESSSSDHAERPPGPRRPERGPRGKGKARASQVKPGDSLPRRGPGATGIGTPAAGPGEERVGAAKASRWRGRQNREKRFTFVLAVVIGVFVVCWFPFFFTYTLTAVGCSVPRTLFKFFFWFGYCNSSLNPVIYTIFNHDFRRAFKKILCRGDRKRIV
Method in brief: as §1

[4] = pKi alpha-2 2b, [3H]rauwolscine, LM(tk-) cell line L-NGC-α2B, SEM and n in lines below
[5] = pKi alpha-1 1c, cloned human receptor in LM(tk-) cell membranes, SEM and n in lines below
[6] = [3H]rauwolscine, LM(tk-) cell line L-α2A, SEM and n in lines below, read-out: pKi alpha-2 2a (converted)
[7] = cloned human receptor in LM(tk-) cell membranes, SEM and n in lines below, read-out: pKi alpha-1 1c (converted)
[8] = pKi alpha-2 2b, [3H]rauwolscine, human α2B receptor, LM(tk−) cells
[9] = pKi alpha-1 1c, cloned human α1C receptor, LM(tk−) cell membranes
[10] = [3H]rauwolscine, human α2A receptor, LM(tk−) cells, read-out: pKi alpha-2 2a (converted)
[11] = [3H]rauwolscine, human α2B receptor, LM(tk−) cells, read-out: pKi alpha-2 2b (converted)
[12] = cloned human α1C receptor, LM(tk−) cell membranes, read-out: pKi alpha-1 1c (converted)

SMILES	Ki ([1]; pKi alpha-2 2b) [nM]	Ki [2, 7] [nM]	Ki [3] [nM]	further results
CC1=C(C(N)=O)C(c2ccc([N+](=O)[O-])cc2)C(C(=O)NCCN2CCC(c3ccccc3)(c3ccccc3)CC2)=C(C)N1 (stereo not drawn) [Example 54, 5-Carboxamide-1,4-dihydro-2,6-dimethyl-4-(4-nitrophenyl)-3-{N-[2-(4,4-diphenylpiperidin-1-yl)ethyl]}carboxamidopyridine hydrochloride hydrate]				Ki [1, 4]: 302 nM; Ki [2, 5]: 12.3 nM; Ki [3, 6]: 468 nM
COC(=O)C1=C(C)NC(C)=C(C(=O)NCCCN2CCC(c3ccccc3)(c3ccccc3)CC2)C1c1ccc(C(F)(F)F)cc1 (stereo not drawn) [Example 1]	3310	30.2	2400	
CCC1=C(C(=O)NCCCN2CCC(c3ccccc3)(c3ccccc3)CC2)C(c2ccc([N+](=O)[O-])cc2)C(C(=O)OC)=C(C)N1 (stereo not drawn) [Example 73, 2-Ethyl-1,4-dihydro-5-methoxycarbonyl-6-methyl-4-(4-nitro) phenyl-3-(N-(3-(4,4-diphenylpiperidin-1-yl)propyl))carboxamidopyridine]	676	0.661	794	
CCC1=C(C(N)=O)C(c2ccc([N+](=O)[O-])cc2)C(C(=O)NCCCN2CCC(C)(c3ccccc3)CC2)=C(CC)N1 (stereo not drawn) [Example 106, 5-Carboxamido-2,6-diethyl-1,4-dihydro-3-{N-[3-(4-Methyl-4-phenylpiperidin-1-yl)propyl]}carboxamido-4-(4-nitrophenyl)pyridine hydrochloride hydrate]				Ki [1, 8]: 372 nM; Ki [2, 9]: 15.1 nM; Ki [3, 10]: 324 nM
CCC1=C(C(=O)NCCCN2CCC(c3ccccc3)(c3ccccc3)CC2)C(c2ccc([N+](=O)[O-])cc2)C(C(N)=O)=C(C)N1 (stereo not drawn) [Example 81, 5-carboxamido-2-ethyl-1,4-dihydro-6-methyl-4-(4-nitro)phenyl-3-(N-(3-(4,4-diphenylpiperidin-1-yl)propyl))carboxamidopyridine hydrochloride]				Ki [1, 4]: 162 nM; Ki [2, 5]: 1.91 nM; Ki [3, 6]: 178 nM
COC(=O)C1=C(C)NC(C)=C(C(=O)NCCCN2CCC(c3ccccc3)(c3ccccc3)CC2)C1c1ccc(Br)cc1 (stereo not drawn) [Example 15, 4-(4-Bromophenyl)-1,4-dihydro-3-methoxycarbonyl-2,6-dimethyl-5-(N-(3-(4,4-diphenylpiperidin-1-yl)propyl)carboxamido)pyridine]	3390	6.31	2450	
CC1=C(C(N)=O)C(c2cccc([N+](=O)[O-])c2)C(C(=O)NCCCN2CCC(c3ccccc3)(c3ccccc3)CC2)=C(C)N1 (stereo not drawn) [Example 61, 5-Carboxamido-1,4-dihydro-2,6-dimethyl-4-(3-nitrophenyl)-3-{N-[3-(4,4-diphenylpiperidin-1-yl)propyl]}carboxamidopyridine]		3.8		Ki ([1]; [3H]rauwolscine, LM(tk-) cell line L-NGC-α2B, SEM and n in lines below, read-out: pKi alpha-2 2b (converted)): 603 nM; Ki [3, 6]: 759 nM
COC(=O)C1=C(C)NC(C)=C(C(=O)NCCN2CCC(c3ccccc3)(c3ccccc3)CC2)C1c1ccc([N+](=O)[O-])cc1 (stereo not drawn) [Example 52, 1,4-Dihydro-3-methoxycarbonyl-2,6-dimethyl-4-(4-nitrophenyl)-5-{N-[2-(4,4-diphenylpiperidin-1-yl)ethyl]}carboxamidopyridine hydrochloride hemihydrate]	794	8.71	513	
CC1=C(C(=O)NCCCN2CCC(c3ccccc3)(c3ccccc3)CC2)C(c2ccc([N+](=O)[O-])cc2)C(C(=O)OCCC#N)=C(C)N1 (stereo not drawn) [Example 160]				Ki [1, 11]: 148 nM; Ki [2, 12]: 7.94 nM; Ki [3, 10]: 457 nM
COC(=O)C1=C(C)NC(C)=C(C(=O)NCCCN2CCC(c3ccccc3)(c3ccccc3)CC2)C1c1ccc(C(=O)OC)cc1 (stereo not drawn) [Example 25, 1,4-Dihydro-3-methoxycarbonyl-4-(4-methoxycarbonylphenyl)-2,6-dimethyl-5-(N-(3-(4,4-diphenylpiperidin-1-yl)propyl)carboxamide)pyridine]	501	33.9	1510	
COC(=O)C1=C(C)NC(C)=C(C(=O)NCCCN2CCC(c3ccccc3)(c3ccccc3)CC2)C1c1ccc(C(C)C)cc1 (stereo not drawn) [Example 18, 1,4-Dihydro-4-(4-isopropylphenyl)-3-methoxycarbonyl-2,6-dimethyl-5-(N-(3-(4,4-diphenylpiperidin-1-yl)propyl)carboxamido)pyridine]	1620	69.2	2140	
CCC1=C(C(N)=O)C(c2ccc(S(C)(=O)=O)cc2)C(C(=O)NCCCN2CCC(c3ccccc3)(c3ccccc3)CC2)=C(C)N1 (stereo not drawn) [Example 118, 3-Carboxamido-2-ethyl-1,4-dihydro-4-(4-methanesulfonylphenyl)-6-methyl-3-(N-(3-(4,4-diphenylpiperidin-1-yl)propyl)carboxyamido)-pyridine]				Ki [1, 8]: 1450 nM; Ki [2, 9]: 9.55 nM; Ki [3, 10]: 3890 nM
CCNC(=O)C1=C(COCCN=[N+]=[N-])NC(CC)=C(C(=O)NCCCN2CCC(c3ccccc3)(c3ccccc3)CC2)C1c1ccc([N+](=O)[O-])cc1 (stereo not drawn) [Example 147, 2-((2-Azidoethyl)oxy)methyl-6-ethyl-3-(N-ethyl)carboxamido-1,4-dihydro-4-(4-nitro)phenyl-5-(N-(3-(4,4-diphenylpiperidin-1-yl-)propyl))carboxamidopyridine]				Ki [1, 8]: 1100 nM; Ki [2, 9]: 11 nM; Ki [3, 10]: 871 nM
COC(=O)C1=C(C)NC(C)=C(C(=O)NCCCN2CCC(c3ccccc3)(c3ccccc3)CC2)C1c1ccc2ccccc2c1 (stereo not drawn) [Example 22]	912	36.3	1580	
COC(=O)C1=C(C)NC(C)=C(C(=O)NCCCN2CCC(c3ccccc3)(c3ccccc3)CC2)C1Cc1ccccc1 (stereo not drawn) [Example 8, 4-Benzyl-1,4-dihydro-3-methoxycarbonyl-2,6-dimethyl-5-(N-(3-(4,4-diphenylpiperidin-1-yl)propyl)carboxamido)pyridine]				Ki [1, 4]: 1860 nM; Ki [2, 5]: 75.9 nM; Ki [3, 6]: 832 nM
COC(=O)C1=C(C)NC(C)=C(C(=O)NCCCN2CCC(c3ccccc3)(c3ccccc3)CC2)C1c1ccc2c(c1)OCO2 (stereo not drawn) [Example 11, 1,4-Dihydro-3-methoxycarbonyl-2,6-dimethyl-4-(3,4-methylenedioxyphenyl)-5-(N-(3-(4,4-diphenylpiperidin-1-yl)propyl)carboxamido)pyridine]	871	1.12	1120	
COC(=O)C1=C(C)NC(C)=C(C(=O)NCCCN2CCC(c3ccccc3)(c3ccccc3)CC2)C1c1ccc(Cl)c([N+](=O)[O-])c1 (stereo not drawn) [Example 16, 4-(4-Chloro-3-nitrophenyl)-1,4-dihydro-3-methoxycarbonyl-2,6-dimethyl-5-(N-(3-(4,4-diphenylpiperidin-1-yl)propyl)carboxamido)pyridine]	1820	5.89	1120	
CCC1=C(C(=O)OCCC#N)C(c2ccc([N+](=O)[O-])cc2)C(C(=O)NCCCN2CCC(c3ccccc3)(c3ccccc3)CC2)=C(COC)N1 (stereo not drawn) [Example 135]				Ki [1, 11]: 389 nM; Ki [2, 12]: 105 nM; Ki [3, 10]: 661 nM
